Experimental data: US20240366589A1, “NHE3-BINDING COMPOUNDS AND METHODS FOR INHIBITING PHOSPHATE TRANSPORT” (Ardelyx, Inc., priority 2013, published 2024)

What was measured:
[1] = system: phosphorus and calcium levels in the urine of rats; experiment: Urinary excretion of phosphate and calcium in rats (16 h overnight urine); assay type: in vivo, rat; conditions: rats, oral gavage, dose 10 mg/kg, 16 h post-dose
Human NHE3 = target: T1, Human NHE3 (Homo sapiens, UniProt P48764); experiment: Cell-based NHE3 activity under prompt conditions (OK cells, BCECF pH recovery), human NHE3; conditions: prompt conditions
T1 construct: expressed in transfected cells; host or cells: Opossum kidney (OK) cells (ATCC), electroporation
T1 sequence (P48764 26-834): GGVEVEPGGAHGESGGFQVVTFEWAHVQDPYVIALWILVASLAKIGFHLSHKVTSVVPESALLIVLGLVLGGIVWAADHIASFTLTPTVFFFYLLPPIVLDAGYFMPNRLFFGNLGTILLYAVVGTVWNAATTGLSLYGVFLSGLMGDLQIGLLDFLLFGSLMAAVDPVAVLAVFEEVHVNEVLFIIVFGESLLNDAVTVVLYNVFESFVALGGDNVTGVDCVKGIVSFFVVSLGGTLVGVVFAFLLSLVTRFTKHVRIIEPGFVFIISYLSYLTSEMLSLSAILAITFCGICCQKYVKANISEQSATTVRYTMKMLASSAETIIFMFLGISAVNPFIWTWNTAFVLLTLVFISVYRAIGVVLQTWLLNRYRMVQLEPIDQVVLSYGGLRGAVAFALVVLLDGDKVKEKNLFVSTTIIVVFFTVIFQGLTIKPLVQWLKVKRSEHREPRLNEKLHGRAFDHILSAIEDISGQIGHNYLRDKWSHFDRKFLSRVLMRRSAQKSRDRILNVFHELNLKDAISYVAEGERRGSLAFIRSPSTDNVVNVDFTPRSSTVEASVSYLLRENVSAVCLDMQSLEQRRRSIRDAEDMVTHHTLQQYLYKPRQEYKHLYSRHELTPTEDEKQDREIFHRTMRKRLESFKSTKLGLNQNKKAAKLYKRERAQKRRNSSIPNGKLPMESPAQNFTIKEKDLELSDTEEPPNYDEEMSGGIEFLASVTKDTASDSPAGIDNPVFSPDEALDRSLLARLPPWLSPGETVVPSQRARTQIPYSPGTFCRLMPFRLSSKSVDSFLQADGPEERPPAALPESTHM
Method in brief: (§1)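 OK cells electroporated with rat or human NHE3 gene, loaded 30 min at room temperature with 5 μM BCECF-AM in NH4Cl-HEPES pH 7.4.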

Rat NHE3 = target: T2, Rat NHE3 (Rattus norvegicus, UniProt P26433); experiment: Cell-based NHE3 activity under prompt conditions (OK cells, BCECF pH recovery), rat NHE3; conditions: prompt conditions
T2 construct: expressed in transfected cells; host or cells: Opossum kidney (OK) cells (ATCC), electroporation
Method in brief: as §1

[2] = system: absorption of sodium from the intestinal lumen; experiment: Inhibition of intestinal sodium absorption: urinary sodium (uNa) 16 h after single oral dose in rats; assay type: in vivo, rat; conditions: oral gavage, dose 10 mg/kg, 16 h post-dose
Method in brief: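 Eight-week-old Sprague-Dawley rats (n=6) given single oral gavage of compound or water vehicle in the late afternoon, then kept in metabolic cages with chow and water ad libitum. Urine collected over 16 h; sodium quantified by ion chromatography and expressed as % of vehicle mean, compared by one-way ANOVA with Dunnett's test.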

[3] = system: absorption of sodium from the intestinal lumen; experiment: Fecal form score (FFS) 16 h after oral dose in rats; assay type: in vivo, rat; conditions: oral gavage, dose 10 mg/kg, 16 h post-dose, scale 1-5
Method in brief: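 Eight-week-old Sprague-Dawley rats (n=6) dosed by oral gavage with compound or water vehicle between 4 and 5 PM, then housed in metabolic cages with food and water ad libitum. At 16 h, fecal form scored 1 (normal pellet) to 5 (liquid streams) by two observers; group mean reported.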

T2 sequence (P26433 29-831): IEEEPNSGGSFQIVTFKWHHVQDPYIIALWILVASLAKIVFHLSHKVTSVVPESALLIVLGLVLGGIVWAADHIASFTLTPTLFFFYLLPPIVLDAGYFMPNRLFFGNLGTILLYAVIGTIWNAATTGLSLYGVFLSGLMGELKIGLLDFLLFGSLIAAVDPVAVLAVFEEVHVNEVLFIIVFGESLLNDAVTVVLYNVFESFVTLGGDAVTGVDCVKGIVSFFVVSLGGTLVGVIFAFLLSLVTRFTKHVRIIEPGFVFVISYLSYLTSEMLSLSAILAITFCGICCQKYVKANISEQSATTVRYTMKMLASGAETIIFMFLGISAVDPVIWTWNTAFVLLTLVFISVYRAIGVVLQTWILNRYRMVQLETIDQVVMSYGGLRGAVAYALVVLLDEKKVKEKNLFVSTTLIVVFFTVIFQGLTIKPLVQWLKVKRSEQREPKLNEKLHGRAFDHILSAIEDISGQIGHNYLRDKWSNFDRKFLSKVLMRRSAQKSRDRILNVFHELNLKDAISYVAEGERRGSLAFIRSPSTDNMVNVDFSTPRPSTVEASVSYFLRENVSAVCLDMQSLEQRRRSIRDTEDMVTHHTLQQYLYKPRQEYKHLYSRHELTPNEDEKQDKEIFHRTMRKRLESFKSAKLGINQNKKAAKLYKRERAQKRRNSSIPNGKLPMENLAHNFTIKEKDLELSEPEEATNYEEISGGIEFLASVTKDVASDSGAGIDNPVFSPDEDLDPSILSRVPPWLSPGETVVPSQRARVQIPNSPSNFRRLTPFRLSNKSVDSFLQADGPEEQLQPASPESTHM

SMILES	Urine P % of control [1] [%]	Prompt Human NHE3 pIC50 (Human NHE3)	Prompt Rat NHE3 pIC50 (Rat NHE3)	Urine Na % of control [2] [%]	Fecal Form Score average [3]
C/C(=C\c1cc(F)c(Oc2ccc(S(=O)(=O)NCCOCCOCCOCCNC(=O)CN(CCN(CC(=O)O)CC(=O)NCCOCCOCCOCCNS(=O)(=O)c3ccc(Oc4c(F)cc(/C=C(\C)C(=O)N=C(N)N)cc4F)cc3)CC(=O)O)cc2)c(F)c1)C(=O)N=C(N)N [compound 27]	91	8.40	7.50	51	1
NC(N)=Nc1nc(-c2cccc(N3CCN(CCOCCOCCNC(=O)NCCOCCOCCNC(=O)NCCCCNC(=O)NCCOCCOCCNC(=O)NCCOCCOCCN4CCN(c5cccc(-c6nc(N=C(N)N)nc7ccc(Cl)cc67)c5)CC4)CC3)c2)c2cc(Cl)ccc2n1 [compound 28]	129	8.10	7.60	83	1
C/C(=C\c1cc(F)c(Oc2ccc(S(=O)(=O)NCCOCCOCCOCCNC(=O)NCCCCNC(=O)NCCOCCOCCOCCNS(=O)(=O)c3ccc(Oc4c(F)cc(/C=C(\C)C(=O)N=C(N)N)cc4F)cc3)cc2)c(F)c1)C(=O)N=C(N)N [compound 29]	102	8.10	7.50	92	1
C/C(=C\c1cc(F)c(Oc2ccc(S(=O)(=O)NCCOCCOCCOCCNC(=O)N(C)CCCCN(C)C(=O)NCCOCCOCCOCCNS(=O)(=O)c3ccc(Oc4c(F)cc(/C=C(\C)C(=O)N=C(N)N)cc4F)cc3)cc2)c(F)c1)C(=O)N=C(N)N [compound 30]	104	8.40	7.80	100	1
C/C(=C\c1cc(F)c(Oc2ccc(S(=O)(=O)NCCOCCOCCOCCNC(=O)N3CCN(C(=O)NCCOCCOCCOCCNS(=O)(=O)c4ccc(Oc5c(F)cc(/C=C(\C)C(=O)N=C(N)N)cc5F)cc4)CC3)cc2)c(F)c1)C(=O)N=C(N)N [compound 31]	81	7.70	7.70	96	1
N=C(N)Nc1nc(-c2cccc(N3CCN(CCOCCOCCOCCNC(=O)CCOCCOCCOCCOCCOCCOCCOCCC(=O)NCCOCCOCCOCCN4CCN(c5cccc(-c6nc(NC(=N)N)nc7ccc(Cl)cc67)c5)CC4)CC3)c2)c2cc(Cl)ccc2n1 [compound 32]	122	8.40	7.30	128	1
CN(CC(=O)NCCOCCOCCNC(=O)NCCOCCOCCN1CCN(c2cccc(-c3nc(NC(=N)N)nc4ccc(Cl)cc34)c2)CC1)CC(=O)NCCOCCOCCNC(=O)NCCOCCOCCN1CCN(c2cccc(-c3nc(NC(=N)N)nc4ccc(Cl)cc34)c2)CC1 [compound 33]	117	7.90	7.40	98	1
CN(CC(=O)NCCOCCOCCNC(=O)NCCOCCOCCOCCOc1ccc(-c2nc(NC(=N)N)nc3ccc(Cl)cc23)cc1)CC(=O)NCCOCCOCCNC(=O)NCCOCCOCCOCCOc1ccc(-c2nc(NC(=N)N)nc3ccc(Cl)cc23)cc1 [compound 34]	72	8.20	7.90	76	1
N=C(N)Nc1nc(-c2ccc(OCCOCCOCCOCCNC(=O)NCCOCCOCCNC(=O)CN(CCN(CC(=O)O)CC(=O)NCCOCCOCCNC(=O)NCCOCCOCCOCCOc3ccc(-c4nc(NC(=N)N)nc5ccc(Cl)cc45)cc3)CC(=O)O)cc2)c2cc(Cl)ccc2n1 [compound 35]	57	8.30	8.00	65	1
